# Active and inactive are the calls of the source.
# Assays:
# Caspase-3 = target: T1, Caspase-3 (Homo sapiens, UniProt P42574); type: functional;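 note: Dose-response selectivity test against caspase-3 for candidate inhibitors of sentrin-specific proteases (SENPs)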
# T1 sequence (P42574 whole entry): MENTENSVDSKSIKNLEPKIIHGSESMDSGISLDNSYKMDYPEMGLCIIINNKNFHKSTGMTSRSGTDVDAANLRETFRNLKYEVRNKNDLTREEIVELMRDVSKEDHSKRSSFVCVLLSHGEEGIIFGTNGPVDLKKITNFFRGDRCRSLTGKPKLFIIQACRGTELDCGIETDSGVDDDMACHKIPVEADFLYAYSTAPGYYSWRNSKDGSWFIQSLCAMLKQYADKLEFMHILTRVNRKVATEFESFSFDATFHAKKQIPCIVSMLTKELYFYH
# [1] = target: T2, Sentrin-specific protease 7 (Homo sapiens, UniProt Q9BQF6); type: functional;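 note: Luminescence-based dose-response confirmation of ultra-high-throughput screening hits, measuring inhibition of SENP7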
# T2 sequence (Q9BQF6 whole entry): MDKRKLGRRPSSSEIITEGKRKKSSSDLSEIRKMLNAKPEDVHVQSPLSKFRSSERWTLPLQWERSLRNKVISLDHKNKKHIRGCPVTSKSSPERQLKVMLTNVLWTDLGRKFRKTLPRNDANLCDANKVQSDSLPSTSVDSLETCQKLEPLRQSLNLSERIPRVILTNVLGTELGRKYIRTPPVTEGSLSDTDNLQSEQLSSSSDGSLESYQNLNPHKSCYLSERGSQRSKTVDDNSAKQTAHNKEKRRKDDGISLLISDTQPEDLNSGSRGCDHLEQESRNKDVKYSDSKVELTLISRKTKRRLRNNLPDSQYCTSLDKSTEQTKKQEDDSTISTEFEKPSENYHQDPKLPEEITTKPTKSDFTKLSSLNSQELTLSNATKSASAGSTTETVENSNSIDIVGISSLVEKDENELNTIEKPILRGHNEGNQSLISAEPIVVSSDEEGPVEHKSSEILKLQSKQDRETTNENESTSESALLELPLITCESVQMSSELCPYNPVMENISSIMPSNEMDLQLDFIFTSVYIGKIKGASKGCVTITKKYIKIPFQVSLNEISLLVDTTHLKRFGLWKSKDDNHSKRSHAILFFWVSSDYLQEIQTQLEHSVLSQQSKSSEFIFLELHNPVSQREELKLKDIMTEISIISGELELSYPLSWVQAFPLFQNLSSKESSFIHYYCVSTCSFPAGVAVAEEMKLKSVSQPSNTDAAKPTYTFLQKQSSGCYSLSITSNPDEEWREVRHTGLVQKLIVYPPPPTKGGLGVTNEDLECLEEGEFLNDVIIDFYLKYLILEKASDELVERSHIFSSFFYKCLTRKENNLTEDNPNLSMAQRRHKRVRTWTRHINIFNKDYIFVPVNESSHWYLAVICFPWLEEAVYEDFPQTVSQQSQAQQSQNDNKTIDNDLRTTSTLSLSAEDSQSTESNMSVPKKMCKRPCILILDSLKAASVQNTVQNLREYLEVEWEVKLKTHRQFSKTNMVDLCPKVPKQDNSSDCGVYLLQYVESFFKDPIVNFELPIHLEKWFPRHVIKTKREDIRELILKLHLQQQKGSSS
# [2] = target: T3, Sentrin-specific protease 6 (Homo sapiens, UniProt Q9GZR1); type: functional;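 note: Luminescence-based dose-response confirmatory assay of SENP6 inhibition, following up an ultra-high-throughput screen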
# T3 sequence (Q9GZR1 whole entry): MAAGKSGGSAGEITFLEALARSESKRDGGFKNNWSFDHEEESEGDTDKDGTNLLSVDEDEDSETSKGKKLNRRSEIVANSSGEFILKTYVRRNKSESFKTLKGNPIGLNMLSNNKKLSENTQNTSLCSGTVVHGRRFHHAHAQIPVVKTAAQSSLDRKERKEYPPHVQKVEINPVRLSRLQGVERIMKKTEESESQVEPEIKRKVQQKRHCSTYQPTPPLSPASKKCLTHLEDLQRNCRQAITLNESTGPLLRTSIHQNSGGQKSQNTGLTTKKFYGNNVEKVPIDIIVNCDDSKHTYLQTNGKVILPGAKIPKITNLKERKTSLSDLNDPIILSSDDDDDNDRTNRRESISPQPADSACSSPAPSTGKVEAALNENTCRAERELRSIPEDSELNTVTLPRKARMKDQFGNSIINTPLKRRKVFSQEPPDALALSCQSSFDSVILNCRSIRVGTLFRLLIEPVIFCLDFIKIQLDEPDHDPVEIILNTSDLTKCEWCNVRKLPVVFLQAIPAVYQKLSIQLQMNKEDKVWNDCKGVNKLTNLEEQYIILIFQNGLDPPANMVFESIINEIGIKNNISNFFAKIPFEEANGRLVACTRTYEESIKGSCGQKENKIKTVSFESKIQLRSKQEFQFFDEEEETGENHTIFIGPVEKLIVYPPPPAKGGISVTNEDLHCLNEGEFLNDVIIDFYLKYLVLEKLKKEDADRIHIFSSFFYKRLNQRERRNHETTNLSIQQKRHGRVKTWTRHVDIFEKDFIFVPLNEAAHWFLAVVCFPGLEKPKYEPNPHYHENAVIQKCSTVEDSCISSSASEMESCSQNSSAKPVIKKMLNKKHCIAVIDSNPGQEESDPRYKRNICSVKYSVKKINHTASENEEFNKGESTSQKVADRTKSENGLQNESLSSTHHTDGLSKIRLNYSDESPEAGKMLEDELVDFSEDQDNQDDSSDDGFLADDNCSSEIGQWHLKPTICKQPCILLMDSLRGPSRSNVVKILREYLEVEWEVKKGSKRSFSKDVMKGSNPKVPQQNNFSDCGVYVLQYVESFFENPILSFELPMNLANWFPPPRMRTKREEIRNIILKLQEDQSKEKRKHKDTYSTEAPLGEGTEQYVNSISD
# [3] = target: T4, Sentrin-specific protease 8 (Homo sapiens, UniProt Q96LD8); type: functional;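 note: luminescence read-out of SENP8 inhibition, dose-response confirmation following an ultra-high-throughput screen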
# T4 sequence (Q96LD8 whole entry): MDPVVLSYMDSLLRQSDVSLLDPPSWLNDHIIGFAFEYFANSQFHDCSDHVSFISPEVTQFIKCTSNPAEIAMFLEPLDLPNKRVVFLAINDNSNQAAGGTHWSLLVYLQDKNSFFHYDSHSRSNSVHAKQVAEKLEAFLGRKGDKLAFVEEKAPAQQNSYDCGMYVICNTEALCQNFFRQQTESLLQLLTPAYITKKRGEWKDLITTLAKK
# [4] = THP-1 cell cytotoxicity, dose response, cytotoxicity control for non-replicating M. tuberculosis project (AID 489025); type: functional
# [5] = Vero E6 cell cytotoxicity, dose response, cytotoxicity control for non-replicating M. tuberculosis project, secondary assay (AID 492998); type: functional, VeroE6; details: Vero C1008
# cells = type: functional
# [6] = Trypanosoma cruzi growth suppression in host cells – NIH3T3 host cells, beta-gal luminescence, confirmation (AID 2044); type: functional, cell-based;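 note: intracellular parasites grown in NIH/3T3 mouse fibroblasts as host cells; luminescent beta-galactosidase reporter signal from transgenic T. cruzi replicating inside host cells; inhibitors lower the luminescence signal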
# [7] = NIH3T3 cell viability loss – ATP luminescence, mouse fibroblasts, counter-screen, dose response (AID 2010); type: functional, cell-based;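 note: cells exposed to compound for about 90 hours before reading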
# [8] = target: T5, Ubiquitin-conjugating enzyme E2 N (Homo sapiens, UniProt P61088); type: functional;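 note: Dose-response confirmation in a TR-FRET assay detecting UBC13-driven polyubiquitin chain formation, inhibition measured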
# T5 sequence (P61088 whole entry): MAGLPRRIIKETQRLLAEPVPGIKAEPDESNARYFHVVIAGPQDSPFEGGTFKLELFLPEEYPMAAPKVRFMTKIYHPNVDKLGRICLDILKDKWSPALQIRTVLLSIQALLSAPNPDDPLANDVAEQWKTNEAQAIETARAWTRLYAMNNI
# P388/ADR = assay: cells; type: functional; details: Mus musculus
# SN12K1 = assay: cells; type: functional; details: Homo sapiens
# P388 = assay: cells; type: functional; details: Mus musculus
# [9] = target: T6, Histone-lysine N-methyltransferase NSD2 (Homo sapiens, UniProt O96028); type: biochemical
# T6 sequence (O96028 whole entry): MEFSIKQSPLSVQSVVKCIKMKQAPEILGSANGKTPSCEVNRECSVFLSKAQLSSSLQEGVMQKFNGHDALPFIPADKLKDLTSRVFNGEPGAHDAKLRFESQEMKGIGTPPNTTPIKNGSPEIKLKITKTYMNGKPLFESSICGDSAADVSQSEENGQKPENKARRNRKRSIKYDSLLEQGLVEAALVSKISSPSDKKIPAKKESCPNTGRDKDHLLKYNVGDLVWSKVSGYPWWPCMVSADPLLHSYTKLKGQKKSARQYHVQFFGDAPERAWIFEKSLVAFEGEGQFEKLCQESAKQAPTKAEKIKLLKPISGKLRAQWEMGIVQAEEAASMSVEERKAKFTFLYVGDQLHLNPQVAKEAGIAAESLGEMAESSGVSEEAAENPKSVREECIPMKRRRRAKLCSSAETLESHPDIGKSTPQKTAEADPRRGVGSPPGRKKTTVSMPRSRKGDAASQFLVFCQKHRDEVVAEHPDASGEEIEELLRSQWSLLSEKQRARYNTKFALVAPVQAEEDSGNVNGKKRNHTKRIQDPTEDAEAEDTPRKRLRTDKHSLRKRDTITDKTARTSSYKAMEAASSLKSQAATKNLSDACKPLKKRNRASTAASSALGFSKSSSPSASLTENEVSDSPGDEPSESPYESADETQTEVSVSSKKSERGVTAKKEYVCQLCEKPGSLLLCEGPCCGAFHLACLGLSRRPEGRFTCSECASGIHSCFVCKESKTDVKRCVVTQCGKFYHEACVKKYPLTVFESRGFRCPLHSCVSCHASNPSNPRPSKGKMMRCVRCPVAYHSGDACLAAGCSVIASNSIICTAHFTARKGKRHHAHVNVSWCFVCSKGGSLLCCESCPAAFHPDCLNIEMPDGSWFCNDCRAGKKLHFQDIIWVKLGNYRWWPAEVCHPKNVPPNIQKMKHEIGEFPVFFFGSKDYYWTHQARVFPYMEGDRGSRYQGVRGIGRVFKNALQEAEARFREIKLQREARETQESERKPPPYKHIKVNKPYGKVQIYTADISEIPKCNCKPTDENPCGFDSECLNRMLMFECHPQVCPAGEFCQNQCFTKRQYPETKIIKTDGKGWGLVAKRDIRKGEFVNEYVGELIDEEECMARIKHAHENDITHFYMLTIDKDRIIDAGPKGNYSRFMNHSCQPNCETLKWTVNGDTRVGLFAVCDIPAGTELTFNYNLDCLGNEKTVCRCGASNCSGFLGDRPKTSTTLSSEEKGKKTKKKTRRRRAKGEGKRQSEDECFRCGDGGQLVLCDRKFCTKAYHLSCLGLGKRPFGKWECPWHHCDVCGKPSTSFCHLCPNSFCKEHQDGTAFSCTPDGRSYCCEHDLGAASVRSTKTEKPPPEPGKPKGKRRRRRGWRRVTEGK
# Cytochrome P450 3A4 = Cytochrome P450 3A4 (Homo sapiens, UniProt P08684);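 note: CYP3A4 tested as one member of a cytochrome P450 panel screen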
# Cytochrome P450 3A4, sequence (P08684 whole entry): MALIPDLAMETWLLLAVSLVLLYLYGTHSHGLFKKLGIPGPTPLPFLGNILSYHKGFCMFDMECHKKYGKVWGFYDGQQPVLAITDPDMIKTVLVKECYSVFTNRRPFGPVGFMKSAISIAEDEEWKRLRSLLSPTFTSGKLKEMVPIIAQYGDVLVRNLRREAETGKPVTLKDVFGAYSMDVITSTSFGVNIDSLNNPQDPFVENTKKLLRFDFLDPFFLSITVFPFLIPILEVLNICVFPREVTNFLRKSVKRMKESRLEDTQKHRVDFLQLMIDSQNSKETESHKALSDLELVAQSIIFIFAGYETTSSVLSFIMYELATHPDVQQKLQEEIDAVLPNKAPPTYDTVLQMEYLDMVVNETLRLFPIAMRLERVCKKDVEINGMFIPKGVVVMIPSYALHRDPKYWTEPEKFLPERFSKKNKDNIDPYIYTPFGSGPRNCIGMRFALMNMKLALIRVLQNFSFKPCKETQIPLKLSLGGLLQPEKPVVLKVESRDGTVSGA
compound,measurement,setting,value
O=C(c1ccccc1)c1ccc(Cn2cc(-c3ccccc3)nn2)cc1,IC50,Caspase-3,32.3 µM (active)
same,IC50,[1],5.67 µM (active)
same,IC50,[2],19.5 µM (active)
same,IC50,[3],23.9 µM (active)
O=C(CC(=O)c1ccccc1O)c1cccc(F)c1,CC50,[4],> 40 µM (active)
same,CC50,[5],16.5 µM (active)
same,IC50,cells,17.4 µM (active)
O=C(Nc1ccccc1N1CCN(C(=O)c2ccc(Cl)cc2)CC1)c1ccc([N+](=O)[O-])o1,EC50,[6],1.32 µM (active)
same,EC50,[7],37.2 µM (active)
same,CC50,[4],12.8 µM (active)
same,CC50,[5],5.96 µM (active)
CCc1ccc(OCC(=O)NNC(=O)c2cnccn2)c(Br)c1,CC50,[4],> 40 µM (active)
same,IC50,[8],> 20 µM (inactive)
same,CC50,[5],18.8 µM (active)
same,IC50,cells,9.66 µM (active)
Oc1c2c(nc3c(-c4ccccc4)cnn13)CCCC2,CC50,[4],> 40 µM (active)
same,CC50,[5],> 20 µM (active)
same,IC50,cells,44 µM (active)
Cc1ccccc1NS(=O)(=O)c1cccc(C(=O)Nc2cccc(C(=O)O)c2)c1,IC50,Caspase-3,66.7 µM (active)
same,IC50,[1],9.34 µM (active)
same,IC50,[2],23.3 µM (active)
same,IC50,[3],23.7 µM (active)
COC1=C(C)C(=O)C2=C(C1=O)C1C3CC4=C(C(=O)C(OC)=C(C)C4=O)C(CNC(=O)C(C)=O)N3C(C#N)C(C2)N1C (centres undefined),GI50,P388/ADR,0.0448 µM (active)
same,GI50,SN12K1,< 0.01 µM (active)
same,GI50,P388,0.01 µM (active)
same,AC50,[9],8.92 µM (active)
CN(C)/N=N/c1ccc([N+](=O)[O-])cc1C(N)=O,GI50,P388/ADR,> 100 µM (inactive)
same,GI50,SN12K1,> 100 µM (inactive)
same,GI50,P388,> 100 µM (inactive)
COc1cc(Cc2nccc3cc(OC)c(OC)cc23)c(C(C)=O)cc1OC,GI50,P388/ADR,14.5 µM (inactive)
same,GI50,SN12K1,20.4 µM (inactive)
same,GI50,P388,1.66 µM (inactive)
NC1=NCN(C2OC(CO)C(O)C2O)C(=O)N1 (centres undefined),GI50,P388/ADR,10.4 µM (inactive)
same,GI50,SN12K1,13.9 µM (inactive)
same,GI50,P388,8.57 µM (inactive)
CCCn1cc2c3c(cccc31)C1C=C(C)CN(C)C1C2 (centres undefined),GI50,P388/ADR,3.34 µM (inactive)
same,GI50,SN12K1,14.2 µM (inactive)
same,GI50,P388,5.69 µM (inactive)
C=C1C(=O)O[C@@H]2[C@H]3O[C@]3(C)CCC=C(C)CC[C@@H]12,GI50,P388/ADR,4.84 µM (inactive)
same,GI50,SN12K1,16.4 µM (inactive)
same,GI50,P388,6.59 µM (inactive)
same,AC50,Cytochrome P450 3A4,10 µM (inconclusive)
CCC1(O)C(=O)OCc2c1cc1n(c2=O)Cc2cc3cc4c(cc3nc2-1)OCO4 (centres undefined),GI50,P388/ADR,< 0.01 µM (active)
same,GI50,SN12K1,< 0.01 µM (active)
same,GI50,P388,< 0.01 µM (active)
C=C(C)C(O)CC/C(C)=C/Cc1c(O)ccc(C(=O)/C=C/c2ccc(O)cc2)c1O (centres undefined) [XANTHOANGELOL B],IC50,Caspase-3,28.1 µM (active)
same,IC50,[1],3.39 µM (active)
same,IC50,[2],4.22 µM (active)
same,IC50,[3],5.08 µM (active)

# From ChEMBL document CHEMBL1201862, “PubChem BioAssay data set” (2004)
